Measured values: paper PMC8699473, “An Easily Expandable Multi-Drug LC-MS Assay for the Simultaneous Quantification of 57 Oral Antitumor Drugs in Human Plasma” (Cancers, 2021)

Legend:
[1] = parameters: method as in supplement references [1-55] as printed per drug; conditions: minimum steady-state blood plasma concentration after multiple dose administration; ref supplement references [1-55] per drug; cited from earlier work
[2] = Freeze-thaw stability in spiked pooled human plasma; format: physicochemical
[3] = Autosampler stability of ready for injection samples; format: physicochemical, human
[4] = Long-term stability in spiked pooled human plasma
[5] = Short-term stability in spiked pooled human plasma (bench-top, 4 °C, 56 °C)

COc1cc(N2CCC(N3CCN(C)CC3)CC2)ccc1Nc1ncc(Cl)c(Nc2ccccc2P(C)(C)=O)n1 [Brigatinib]
cmin [1]: 520 ng/mL
Freeze-Thaw Accuracy [%] ([2]; validation standard 2xLLOV): 98.7%
Freeze-Thaw Accuracy [%] ([2]; validation standard LLOV): 111.4%
Freeze-Thaw Accuracy [%] ([2]; validation standard MOV): 95.5%
Freeze-Thaw Accuracy [%] ([2]; validation standard ULOV): 97.9%
Autosampler (24h, 4°C) Accuracy [%] ([3]; validation standard 2xLLOV): 96.4%
Autosampler (72h, 4°C) Accuracy [%] ([3]; validation standard 2xLLOV): 91.9%
Autosampler (24h, 4°C) Accuracy [%] ([3]; validation standard LLOV): 90.7%
Autosampler (72h, 4°C) Accuracy [%] ([3]; validation standard LLOV): 85.3%
Autosampler (24h, 4°C) Accuracy [%] ([3]; validation standard MOV): 104.4%
Autosampler (72h, 4°C) Accuracy [%] ([3]; validation standard MOV): 95.5%
Autosampler (24h, 4°C) Accuracy [%] ([3]; validation standard ULOV): 96.1%
Autosampler (72h, 4°C) Accuracy [%] ([3]; validation standard ULOV): 96.6%
Long-term stability, 1 month, -20°C Accuracy [%] ([4]; validation standard 2xLLOV): 92.4%
Long-term stability, 1 month, -80°C Accuracy [%] ([4]; validation standard 2xLLOV): 92.1%
Long-term stability, 2 month, -20°C Accuracy [%] ([4]; validation standard 2xLLOV): 105.4%
Long-term stability, 2 month, -80°C Accuracy [%] ([4]; validation standard 2xLLOV): 110.2%
Long-term stability, 3 month, -20°C Accuracy [%] ([4]; validation standard 2xLLOV): 96.3%
Long-term stability, 3 month, -80°C Accuracy [%] ([4]; validation standard 2xLLOV): 99.0%
Long-term stability, 6 weeks, 4°C, without daylight Accuracy [%] ([4]; validation standard 2xLLOV): 94.2%
Long-term stability, 1 month, -20°C Accuracy [%] ([4]; validation standard LLOV): 93.6%
Long-term stability, 1 month, -80°C Accuracy [%] ([4]; validation standard LLOV): 88.3%
Long-term stability, 2 month, -20°C Accuracy [%] ([4]; validation standard LLOV): 100.6%
Long-term stability, 2 month, -80°C Accuracy [%] ([4]; validation standard LLOV): 96.7%
Long-term stability, 3 month, -20°C Accuracy [%] ([4]; validation standard LLOV): 92.1%
Long-term stability, 3 month, -80°C Accuracy [%] ([4]; validation standard LLOV): 93.0%
Long-term stability, 6 weeks, 4°C, without daylight Accuracy [%] ([4]; validation standard LLOV): 89.6%
Long-term stability, 1 month, -20°C Accuracy [%] ([4]; validation standard MOV): 100.8%
Long-term stability, 1 month, -80°C Accuracy [%] ([4]; validation standard MOV): 96.9%
Long-term stability, 2 month, -20°C Accuracy [%] ([4]; validation standard MOV): 108.5%
Long-term stability, 2 month, -80°C Accuracy [%] ([4]; validation standard MOV): 107.5%
Long-term stability, 3 month, -20°C Accuracy [%] ([4]; validation standard MOV): 105.5%
Long-term stability, 3 month, -80°C Accuracy [%] ([4]; validation standard MOV): 106.8%
Long-term stability, 6 weeks, 4°C, without daylight Accuracy [%] ([4]; validation standard MOV): 104.7%
Long-term stability, 1 month, -20°C Accuracy [%] ([4]; validation standard ULOV): 100.4%
Long-term stability, 1 month, -80°C Accuracy [%] ([4]; validation standard ULOV): 95.0%
Long-term stability, 2 month, -20°C Accuracy [%] ([4]; validation standard ULOV): 105.8%
Long-term stability, 2 month, -80°C Accuracy [%] ([4]; validation standard ULOV): 108.0%
Long-term stability, 3 month, -20°C Accuracy [%] ([4]; validation standard ULOV): 102.6%
Long-term stability, 3 month, -80°C Accuracy [%] ([4]; validation standard ULOV): 98.7%
Long-term stability, 6 weeks, 4°C, without daylight Accuracy [%] ([4]; validation standard ULOV): 98.6%
Short-time stability (1h, 56°C) Accuracy [%] ([5]; validation standard 2xLLOV): 18.2%
Short-time stability (24h, 4°C, without daylight) Accuracy [%] ([5]; validation standard 2xLLOV): 102.8%
Short-time stability (24h, RT, with daylight) Accuracy [%] ([5]; validation standard 2xLLOV): 76.4%
Short-time stability (24h, RT, without daylight) Accuracy [%] ([5]; validation standard 2xLLOV): 74.1%
Short-time stability (1h, 56°C) Accuracy [%] ([5]; validation standard LLOV): 7.8%
Short-time stability (24h, 4°C, without daylight) Accuracy [%] ([5]; validation standard LLOV): 95.0%
Short-time stability (24h, RT, with daylight) Accuracy [%] ([5]; validation standard LLOV): 55.6%
Short-time stability (24h, RT, without daylight) Accuracy [%] ([5]; validation standard LLOV): 55.1%
Short-time stability (1h, 56°C) Accuracy [%] ([5]; validation standard MOV): 38.5%
Short-time stability (24h, 4°C, without daylight) Accuracy [%] ([5]; validation standard MOV): 104.2%
Short-time stability (24h, RT, with daylight) Accuracy [%] ([5]; validation standard MOV): 85.3%
Short-time stability (24h, RT, without daylight) Accuracy [%] ([5]; validation standard MOV): 93.4%
Short-time stability (1h, 56°C) Accuracy [%] ([5]; validation standard ULOV): 35.7%
Short-time stability (24h, 4°C, without daylight) Accuracy [%] ([5]; validation standard ULOV): 93.7%
Short-time stability (24h, RT, with daylight) Accuracy [%] ([5]; validation standard ULOV): 91.3%
Short-time stability (24h, RT, without daylight) Accuracy [%] ([5]; validation standard ULOV): 90.3%
